Source: patent publication US6514911B1, “Substituted oxadiazines useful as pesticides” (Uniroyal Chemical Company, Inc., priority 2002, dated 2003)

Assays:
Type in all cases: in vivo
[1] = system: prickly sida (Sida spinosa L.) (PS); assay: Preemergence herbicide test, soil drench, prickly sida; conditions: Sida spinosa, 336 h, 10 lbs/A (11.2 kg/ha) soil drench, two weeks after treatment, vs untreated checks, read-out: Percent Weed Control PS
[2] = system: velvetleaf (Abutilon theophrasti Medik.) (VL); assay: Postemergence herbicide test, foliar spray, velvetleaf; conditions: 3000 ppm foliar spray to drip point, treated six days after emergence, two weeks after treatment
Procedure: (§1) To illustrate the effectiveness of the previously described substituted oxadiazines of this invention as preemergence herbicides, 300 mg of the chemical was dissolved in a composition comprising 10 mL acetone to which 30 mg of tile emulsifying agent, ethoxylated sorbitan monolaurate, was added. The solution was diluted to 100 mL with distilled water. Ten milliliters of this 3000 ppm solution was diluted to 250 ppm with distilled water. The chemical was applied at the rate of 10 pounds/acre (11.2 kg/ha) by drenchings 46 mL of the 250 ppm solution on the surface of soil in 4½ inch (11.25 cm) plastic pots wherein seeds of the following weeds had been planted: velvetleaf (Abutilon theophrasti Medik.) (VL), To illustrate the effectiveness of the described substituted oxadiazines as postemergence herbicides, the 3000 ppm solution described under Example 5 was atomized with a conventional DeVilbiss™ sprayer, wetting the foliage to the drip point. The weeds, which were the same species as described in Example 5, were treated six days after emergence. The percent weed control was evaluated two weeks after treatment.

[3] = system: green foxtail (Setaria virdis (L.) Beauv.) (GF); assay: Preemergence herbicide test, soil drench, green foxtail; conditions: Setaria, 336 h, 10 lbs/A (11.2 kg/ha) soil drench, two weeks after treatment, vs untreated checks, read-out: Percent Weed Control GF
Summary of the method: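 Compound in acetone/water with ethoxylated sorbitan monolaurate emulsifier, applied as 250 ppm soil drench at 10 lb/acre (11.2 kg/ha) to pots sown with green foxtail seed. Percent weed control versus untreated checks rated two weeks after treatment.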

[4] = system: prickly sida (Sida spinosa L.) (PS); assay: Postemergence herbicide test, foliar spray, prickly sida; conditions: 3000 ppm foliar spray to drip point, treated six days after emergence, two weeks after treatment
Procedure: as §1, with “41⁄2” for “4½”, “prickly […] spinosa L.) (PS),” for “velvetleaf (Abutilon theophrasti Medik.) (VL),”, “DeVilbissTM” for “DeVilbiss™”

[5] = system: tall morningglory (Ipomoea purpurea (L.) Roth) (TM); assay: Preemergence herbicide test, soil drench, tall morningglory; conditions: Ipomoea, 336 h, 10 lbs/A (11.2 kg/ha) soil drench, two weeks after treatment, vs untreated checks, read-out: Percent Weed Control TM
Summary of the method: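 Acetone/emulsifier formulation diluted to 250 ppm and drenched onto soil surface of seeded pots at 10 lb/acre (11.2 kg/ha), preemergence. Percent weed control versus untreated checks scored two weeks after treatment.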

[6] = system: velvetleaf (Abutilon theophrasti Medik.) (VL); assay: Preemergence herbicide test, soil drench, velvetleaf; conditions: Abutilon theophrasti, 336 h, 10 lbs/A (11.2 kg/ha) soil drench, two weeks after treatment, vs untreated checks, read-out: Percent Weed Control VL
Summary of the method: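 Compound in acetone/ethoxylated sorbitan monolaurate, diluted to 250 ppm in water, was drenched onto the soil surface of pots sown with velvetleaf at 10 lb/acre (11.2 kg/ha). Percent control versus untreated checks was rated two weeks after treatment.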

SMILES	pest or weed control at 11208.5 g/ha [1] [%]	Percent Weed Control VL [2] [%]	pest or weed control at 11208.5 g/ha [3] [%]	Percent Weed Control PS [4] [%]	pest or weed control at 11208.5 g/ha [5] [%]	pest or weed control at 11208.5 g/ha [6] [%]
FC(F)(F)C1=NC(C(F)(F)F)(C(F)(F)F)N=C(c2cccc(Cl)c2)O1 [Compound 4, 2-(3-chlorophenyl)-4,4,6-tris(trifluoromethyl)-4H-1,3,5-oxadiazine]	100	50	100	90	100	100
FC(F)(F)C(F)(F)C1=NC(C(F)(F)F)(C(F)(F)F)N=C(c2cccc(Cl)c2)O1 [Compound 13, 2-(3-chlorophenyl)-6-(pentafluoroethyl)-4,4-bis(trifluoromethyl)-4H-1,3,5-oxadiazine]	100	100	100	100	100	100
Fc1ccc(C2=NC(C(F)(F)F)(C(F)(F)F)N=C(C(F)(F)C(F)(F)F)O2)cc1Cl [Compound 20, 2-(3-chloro-4-fluorophenyl)-6-(pentafluoroethyl)-4,4-bis(trifluoromethyl)-4H-1,3,5-oxadiazine]	100	70	100	70	100	100
FC(F)(F)C(F)(F)C1=NC(C(F)(F)F)(C(F)(F)F)N=C(c2ccc(Cl)cc2)O1 [Compound 24, 2-(4-chlorophenyl)-6-(pentafluoroethyl)-4,4-bis(trifluoromethyl)-4H-1,3,5-oxadiazine]	100	50	100	100	100	100
FC(F)(F)C(F)(F)C1=NC(C(F)(F)F)(C(F)(F)F)N=C(c2ccc(Br)cc2)O1 [Compound 25, 2-(4-bromophenyl)-6-(pentafluoroethyl)-4,4-bis(trifluoromethyl)-4H-1,3,5-oxadiazine]	100	100	100	100	100	100
